≈ marks a conversion by molar mass, not a printed value. Non-standard residues stand in square brackets, D forms with d. Residues, ends and D or L forms follow the SMILES beside them. Dip = N[C@H](C(=O)O)C(c1ccccc1)c1ccccc1
Key:
Experiment in all cases: microbe, parasite or virus in culture
MRSA (ATCC BAA-1556) = assay type: cell-based, Methicillin-Resistant Staphylococcus aureus
Protocol: (§1) The antibacterial activity of all ten synthesized linear and cyclic peptides was evaluated against MRSA (ATCC BAA-1556), S. aureus (ATCC 29213), E. faecium (ATCC 700221), S. pneumoniae (ATCC 51938), E. faecalis (ATCC 29212), B. subtilis (ATCC-6633), K. pneumoniae (ATCC BAA-1705), P. aeruginosa (ATCC 27883), and E. coli (ATCC 25922). Meropenem and daptomycin were used as positive controls for this study. Certain peptides are marked as “NT” (not tested) against specific bacterial strains based on initial screening data. […] The MIC was determined by micro-broth dilution protocol, where the minimal concentrations were determined to be in wells with no visible bacterial growth.
(§2) All bacterial experiments were carried out in a laminar flow hood (Labconco, Kansas City, MO, USA). The bacterial strains were cultured following the guidelines set by the Clinical Laboratory Standards Institute (CLSI). Antibacterial assays were performed using a standard microtiter dilution method as described in previous studies. The minimum inhibitory concentration (MIC) refers to the lowest peptide concentration that inhibits bacterial growth in wells with no visible bacterial growth. MIC was determined by micro-broth dilution. Bacteria were cultured overnight in 6 mL of Luria Broth (LB). A stock solution of the peptide was prepared in water and DMSO, and a test compound solution with a concentration of 256 µg/mL was made in LB. Meropenem, with a solubility of 8 mg/mL, was prepared as a stock solution at 4 mg/500 µL. An aliquot of the overnight bacteria culture was diluted in normal saline (NS, 1 mL) until achieving a 0.5 McFarland turbidity (1.5 × 10^8 bacterial cell CFU/mL). A 0.5 McFarland compared solution (60 µL) was added to Mueller Hinton Broth (MH) 8940 µL to generate a 1/150 dilution. A 200 µL test compound solution was added to the first well of a 96-well plate, and the remaining wells (2–12) were filled with 100 µL of MH media using a multi-channel pipette from a sterile reservoir. A concentration of […] of the tested peptides was prepared from a stock solution of the samples for testing in Muller−Hinton broth MH media. Peptides stock solution was dissolved in 5% DMSO in water, and the final concentration of DMSO in the first well of assay plate was 2.5% DMSO/H2O and diluted across the assay plate.
(§3) A 100 µL sample from well 1 was pipetted into well 2, and the solution was mixed thoroughly by pipetting up and down. Next, 100 µL was transferred from well 2 to well 3, followed by thorough mixing. This 2-fold serial dilution process continued through well 11, with no additions made to well 12. The final 100 µL from well 11 was discarded. After completing the serial dilution, each well (1–12) contained 100 µL of solution. The bacterial culture in MH media was vortexed and transferred to a sterile reservoir, from which 100 µL was added to each well using a 12-channel pipette. (Note: The dilutions were further diluted upon adding the bacterial solution; for example, the concentration in well 1 started at […] after the addition of the bacterial culture.) The plates were incubated overnight at 37 °C for 24 h. All experiments were performed in triplicate and repeated twice, with controls consisting of bacteria in MH media and positive controls of daptomycin or meropenem.

S. aureus (ATCC 29213) = assay type: cell-based, Staphylococcus aureus
Protocol: as §1, §2, §3

E. faecium (ATCC 700221) = assay type: cell-based, Enterococcus faecium
Protocol: as §1, §2, §3

[1] = tested on: S. pneumoniae (ATCC 51938); assay type: cell-based, Streptococcus pneumoniae
Protocol: as §1, §2, §3

E. faecalis (ATCC 29212) = assay type: cell-based, Enterococcus faecalis
Protocol: as §1, §2, §3

B. subtilis (ATCC-6633) = assay type: cell-based, Bacillus subtilis
Protocol: as §1, §2, §3

[2] = tested on: K. pneumoniae (ATCC BAA-1705); assay type: cell-based, Klebsiella pneumoniae
Protocol: as §1, §2, §3

[3] = tested on: P. aeruginosa (ATCC 27883); assay type: cell-based, Pseudomonas aeruginosa
Protocol: as §1, §2, §3

E. coli (ATCC 25922) = assay type: cell-based, Escherichia coli
Protocol: as §1, §2, §3

C. albicans (ATCC 60193) = assay type: cell-based, Candida albicans; conditions: ATCC 60193, 24 h
Protocol: (§4) The antifungal activity of all ten synthesized linear and cyclic peptides was evaluated against C. albicans (ATCC 60193), C. parapsilosis (ATCC 22019), and A. fumigatus (AF-293). Fluconazole and amphotericin B were used as positive controls for this study. The MIC was determined at concentrations in wells with no visible fungal growth.
(§5) In this study, C. albicans and C. parapsilosis were cultured on Yeast Peptone Dextrose (YPD) agar containing 1% w/v yeast extract, 2% w/v peptone, 2% w/v D-glucose, and 1.5% agar. A single colony from the agar was selected and cultured in Tryptone soy broth supplemented with 0.1% D-glucose, then incubated for 24 h at 37 °C. The cells were washed twice with PBS by centrifugation at 2000 RPM for 5 min. The pellet was resuspended in 5 mL of PBS, diluted in RPMI 1640 with L-glutamine, supplemented with 2% D-glucose, and the pH adjusted using HEPES buffer. The suspension was then incubated for 50 min at 35 °C to achieve a final cell concentration of 10^6 cells/mL.
(§6) Peptide concentrations of 50, 25, 12.5, 6.25, and 3.1 μg/mL were tested in triplicate and repeated twice. Each well of a 96-well plate was inoculated with the prepared inoculum suspension, which was diluted with RPMI media to a final volume of 200 μL per well. The control well received the same inoculum without any compound. The plates were incubated for 24 h at 37 °C. Fungal and microbial growth were visually observed in the control wells, and the minimum inhibitory concentration (MIC) was determined as the lowest concentration at which no growth was detected in the wells. Amphotericin B was used as a standard antifungal drug.

[4] = tested on: C. parapsilosis (ATCC 22019); assay type: cell-based, Candida parapsilosis; conditions: ATCC 22019, 24 h
Protocol: as §4, §5, §6

Compound	MIC (MRSA (ATCC BAA-1556); ATCC BAA-1556, 24 h) [µM]	MIC (S. aureus (ATCC 29213); ATCC 29213, 24 h) [µM]	MIC (E. faecium (ATCC 700221); ATCC 700221, 24 h) [µM]	MIC ([1]; ATCC 51938, 24 h) [µM]	MIC (E. faecalis (ATCC 29212); ATCC 29212, 24 h) [µM]	MIC (B. subtilis (ATCC-6633); ATCC-6633, 24 h) [µM]	MIC ([2]; ATCC BAA-1705, 24 h) [µM]	MIC ([3]; ATCC 27883, 24 h) [µM]	MIC (E. coli (ATCC 25922); ATCC 25922, 24 h) [µM]	MIC (C. albicans (ATCC 60193)) [µM]	MIC [4] [µM]	MIC (MRSA (ATCC BAA-1556); Staphylococcus aureus, micro-broth dilution, Mueller Hinton broth, 37 °C, 24 h, no visible growth, triplicate, repeated twice) [µM]	MIC (S. aureus (ATCC 29213); Staphylococcus aureus, ATCC29213, micro-broth dilution, Mueller Hinton broth, 37 °C, 24 h, no visible growth, triplicate, repeated twice) [µM]	MIC (E. faecium (ATCC 700221); Enterococcus faecium, ATCC700221, micro-broth dilution, Mueller Hinton broth, 37 °C, 24 h, no visible growth, triplicate, repeated twice) [µM]	MIC ([1]; Streptococcus pneumoniae, ATCC51938, micro-broth dilution, Mueller Hinton broth, 37 °C, 24 h, no visible growth, triplicate, repeated twice) [µM]	MIC (E. faecalis (ATCC 29212); Enterococcus faecalis, ATCC29212, micro-broth dilution, Mueller Hinton broth, 37 °C, 24 h, no visible growth, triplicate, repeated twice) [µM]	MIC (B. subtilis (ATCC-6633); Bacillus subtilis, ATCC6633, micro-broth dilution, Mueller Hinton broth, 37 °C, 24 h, no visible growth, triplicate, repeated twice) [µM]	MIC ([2]; Klebsiella pneumoniae, ATCCBAA1705, micro-broth dilution, Mueller Hinton broth, 37 °C, 24 h, no visible growth, triplicate, repeated twice, NA = Not active) [µM]	MIC ([3]; Pseudomonas aeruginosa, ATCC27883, micro-broth dilution, Mueller Hinton broth, 37 °C, 24 h, no visible growth, triplicate, repeated twice, NA = Not active) [µM]	MIC (E. coli (ATCC 25922); Escherichia coli, ATCC25922, micro-broth dilution, Mueller Hinton broth, 37 °C, 24 h, no visible growth, triplicate, repeated twice, NA = Not active) [µM]
N=C(N)NCCC[C@H](NC(=O)[C@@H](NC(=O)[C@H](CCCNC(=N)N)NC(=O)[C@@H](NC(=O)[C@H](CCCNC(=N)N)NC(=O)[C@H](Cc1c[nH]c2ccccc12)NC(=O)[C@H](CCCNC(=N)N)NC(=O)[C@H](Cc1c[nH]c2ccccc12)NC(=O)[C@H](CCCNC(=N)N)NC(=O)[C@@H](N)Cc1c[nH]c2ccccc12)C(c1ccccc1)c1ccccc1)C(c1ccccc1)c1ccccc1)C(=O)O [((DipR)2(WR)3)] (H-WRWRWR[Dip]R[Dip]R-OH)	3.1 (≈ 5.59 µg/mL)	3.1 (≈ 5.59 µg/mL)	3.1 (≈ 5.59 µg/mL)	0.78 (≈ 1.41 µg/mL)	6.3 (≈ 11.4 µg/mL)	1.6 (≈ 2.89 µg/mL)	12.5 (≈ 22.6 µg/mL)	12.5 (≈ 22.6 µg/mL)	6.3 (≈ 11.4 µg/mL)	3.5 (≈ 6.31 µg/mL)	6.9 (≈ 12.4 µg/mL)									
N=C(N)NCCC[C@H](NC(=O)[C@@H](NC(=O)[C@H](CCCNC(=N)N)NC(=O)[C@@H](NC(=O)[C@H](CCCNC(=N)N)NC(=O)[C@@H](NC(=O)[C@H](CCCNC(=N)N)NC(=O)[C@H](Cc1c[nH]c2ccccc12)NC(=O)[C@H](CCCNC(=N)N)NC(=O)[C@@H](N)Cc1c[nH]c2ccccc12)C(c1ccccc1)c1ccccc1)C(c1ccccc1)c1ccccc1)C(c1ccccc1)c1ccccc1)C(=O)O [((DipR)3(WR)2)] (H-WRWR[Dip]R[Dip]R[Dip]R-OH)	3.1 (≈ 5.71 µg/mL)	3.1 (≈ 5.71 µg/mL)	3.1 (≈ 5.71 µg/mL)	0.78 (≈ 1.44 µg/mL)	3.1 (≈ 5.71 µg/mL)	3.1 (≈ 5.71 µg/mL)	25 (≈ 46 µg/mL)	25 (≈ 46 µg/mL)	12.5 (≈ 23 µg/mL)	3.4 (≈ 6.26 µg/mL)	6.8 (≈ 12.5 µg/mL)									
N=C(N)NCCC[C@H](NC(=O)[C@@H](NC(=O)[C@H](CCCNC(=N)N)NC(=O)[C@@H](NC(=O)[C@H](CCCNC(=N)N)NC(=O)[C@@H](NC(=O)[C@H](CCCNC(=N)N)NC(=O)[C@@H](NC(=O)[C@H](CCCNC(=N)N)NC(=O)[C@@H](N)Cc1c[nH]c2ccccc12)C(c1ccccc1)c1ccccc1)C(c1ccccc1)c1ccccc1)C(c1ccccc1)c1ccccc1)C(c1ccccc1)c1ccccc1)C(=O)O [((DipR)4(WR))] (H-WR[Dip]R[Dip]R[Dip]R[Dip]R-OH)	3.1 (≈ 5.82 µg/mL)	3.1 (≈ 5.82 µg/mL)	1.6 (≈ 3.01 µg/mL)	0.78 (≈ 1.47 µg/mL)	1.6 (≈ 3.01 µg/mL)	12.5 (≈ 23.5 µg/mL)	25 (≈ 47 µg/mL)	25 (≈ 47 µg/mL)	12.5 (≈ 23.5 µg/mL)	6.6 (≈ 12.4 µg/mL)	6.6 (≈ 12.4 µg/mL)									
CCCCCCCCCC(=O)N[C@@H](Cc1c[nH]c2ccccc12)C(=O)N[C@H](CC(N)=O)C(=O)N[C@@H](CC(=O)O)C(=O)N[C@@H]1C(=O)NCC(=O)N[C@@H](CCCN)C(=O)N[C@@H](CC(=O)O)C(=O)N[C@H](C)C(=O)N[C@@H](CC(=O)O)C(=O)NCC(=O)N[C@H](CO)C(=O)N[C@@H]([C@H](C)CC(=O)O)C(=O)N[C@@H](CC(=O)c2ccccc2N)C(=O)O[C@@H]1C [Daptomycin, reference compound]	1.2 (≈ 1.94 µg/mL)	0.62 (≈ 1 µg/mL)	1.2 (≈ 1.94 µg/mL)	4.9 (≈ 7.94 µg/mL)	9.87 (≈ 16 µg/mL)	0.3 (≈ 0.486 µg/mL)														
C[C@@H](O)[C@H]1C(=O)N2C(C(=O)O)=C(S[C@@H]3CN[C@H](C(=O)N(C)C)C3)[C@H](C)[C@H]12 [Meropenem, reference compound]												5.2 (≈ 1.99 µg/mL)	0.5 (≈ 0.192 µg/mL)	83 (≈ 31.8 µg/mL)	0.6 (≈ 0.23 µg/mL)	5.2 (≈ 1.99 µg/mL)	0.6 (≈ 0.23 µg/mL)	42 (≈ 16.1 µg/mL)	2.6 (≈ 0.997 µg/mL)	2.6 (≈ 0.997 µg/mL)

From publication PMC11763264, “Antibacterial and Antifungal Activities of Linear and Cyclic Peptides Containing Arginine, Tryptophan, and Diphenylalanine” (Antibiotics, 2025)
